Data: ChEMBL document CHEMBL1136946, “The regulation of inflammatory cytokine secretion in macrophage cell line by the chemical constituents of Rhus sylvestris” (Bioorg Med Chem Lett, 2009)
Active and inactive are the calls of the source. The calls are words filed in the database; no cut-off is given here.

Columns and labels:
HeLa = experiment: Cytotoxicity against human HeLa cells by MTT assay; type: functional, cell-based
RAW264.7 [1] = experiment: Antiinflammatory activity in mouse RAW264.7 cells assessed as inhibition LPS-induced IL6 secretion at 1 uM after 12 hrs; type: functional; settings: for inhibition at 1 µM: RAW264.7, 12 h
MCF7 = experiment: Cytotoxicity against human MCF7 cells by MTT assay; type: functional, cell-based
RAW264.7 [2] = experiment: Antiinflammatory activity in mouse RAW264.7 cells assessed as inhibition LPS-induced TNFalpha secretion at 0.01 uM after 12 hrs; type: functional; settings: RAW264.7, 12 h
SK-MEL-1 = experiment: Cytotoxicity against human SK-MEL-1 cells by MTT assay; type: functional, cell-based
RAW264.7 [3] = experiment: Antiinflammatory activity in mouse RAW264.7 cells assessed as inhibition LPS-induced TNFalpha secretion at 1 uM after 12 hrs; type: functional; settings: RAW264.7, 12 h

SMILES	IC50 (HeLa)	Activity (RAW264.7 [1])	IC50 (MCF7)	inhibition at 0.01 µM (RAW264.7 [2])	IC50 (SK-MEL-1)	inhibition at 1 µM (RAW264.7 [3])	inhibition at 1 µM (RAW264.7 [1])
C=C(C)C(=O)CC[C@@H](C)[C@H]1CC[C@@]2(C)[C@H]3CC[C@H]4C(C)(C)C(=O)CC[C@@]45C[C@@]35CC[C@]12C	24.8 µM	inactive	30.9 µM	20.9%	15.9 µM		
CC(C)=CCC[C@@H](C)[C@H]1CC[C@@]2(C)[C@H]3CC[C@H]4C(C)(C)C(=O)CC[C@@]45C[C@@]35CC[C@]12C	> 50 µM	inactive	> 50 µM		> 50 µM	15.2%	
CC(=O)O[C@H]1CC[C@]2(C)[C@H]3CC=C4[C@@H]5CC(C)(C)CC[C@]5(C)CC[C@@]4(C)[C@]3(C)CC[C@H]2C1(C)C [beta-AMYRIN ACETATE]	> 50 µM	inactive	26.7 µM	20.9%	> 50 µM		
CC1(C)CC[C@]2(C)CC[C@]3(C)[C@H]4CC=C5[C@@H](CC[C@H](O)C5(C)C)[C@]4(C)CC[C@@]3(C)[C@@H]2C1 [GLUTINOL]	> 50 µM	inactive	> 50 µM	20.9%	> 50 µM		
CC1(C)CC[C@]2(C)CC[C@]3(C)C(=CC[C@@H]4[C@@]5(C)CC[C@H](O)C(C)(C)[C@@H]5CC[C@]43C)[C@@H]2C1 [beta-AMYRIN]	> 50 µM		> 50 µM		> 50 µM		
CC(C)=CCC[C@@H](C)[C@H]1CC[C@@]2(C)[C@@H]3CC=C4[C@@H](CC[C@H](O)C4(C)C)[C@]3(C)CC[C@]12C	> 50 µM		> 50 µM		> 50 µM	80.9%	
COc1ccc(/C=C/C(=O)c2ccc(OC)cc2O)cc1	> 50 µM	inactive	45.4 µM	20.9%	41.7 µM		
C=C(C)[C@@H]1CC[C@]2(C)CC[C@]3(C)[C@H](CC[C@@H]4[C@@]5(C)CC[C@H](O)C(C)(C)[C@@H]5CC[C@]43C)[C@@H]12 [LUPEOL]	> 50 µM		> 50 µM		> 50 µM		
C=C(C)C(O)CC[C@@H](C)[C@H]1CC[C@@]2(C)[C@H]3CC[C@H]4C(C)(C)C(=O)CC[C@@]45C[C@@]35CC[C@]12C (stereo not given in full)	> 50 µM		> 50 µM	20.9%	> 50 µM		54.6%
CC[C@H](CC[C@@H](C)[C@H]1CC[C@H]2[C@@H]3CC=C4C[C@@H](O)CC[C@]4(C)[C@H]3CC[C@]12C)C(C)C [BETA-SITOSTEROL]	46.2 µM		42.1 µM	20.9%	> 50 µM		54.5%
